Like-named read-outs stand apart in the source and are kept apart here.
Experiments:
[1] = tested on: (C57BL/6XB6. C—H2^bml) F1 mice; test: Life-lengthening effect on graft versus host disease (GVHD); type: in vivo, mouse; conditions: oral, once a day
Method: Life-Lengthening Effect on Graft Versus Host Disease (GVHD)
The present test was carried out by modification of the method of Jonathan et al. (Jonathan et al., Blood, p. 93 (1999)). First, 6.0 Gy X-ray was applied to (C57BL/6XB6. C—H2^bml) F1 mice (produced by mating 6XB6.C—H2^bml mice (Jackson Laboratory) with C57BL/6 mice (Charles River Japan); female; 8 to 12-week-old). Thereafter, CD8 positive T cells (1.25×10^6 cells) prepared from the splenic cells of C57BL/6 mice (Charles River Japan; female; 8-week-old) were intravenously injected into the above (C57BL/6XB6. C—H2^bml) F1 mice. From the day before the injection, the test compound having each diluted concentration or 0.5% carboxymethyl cellulose used as a solvent was orally administered to the mice once a day for 7 to 30 consecutive days. The day on which the transplantation was conducted was defined as day 0. Based on the median of the survival days of each group, the prolongation rate of such survival dates was calculated using the following formula (7). Thus, the effect of the test compound on GVHD was analyzed.
[formula] • Eexp: Median of survival days of test compound administration group • Cexp: Median of survival days of solvent administration group

[2] = tested on: MHC class I molecules of T1 cells (human lymphoma cell line 174×CEM.); test: Effect on expression of MHC class I from T1 cells (flow cytometry, MFI); type: cell-based; conditions: 3 days culture
In short: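 EC20 is the compound level that lowers MHC class I MFI by 20% relative to compound-free cultures. Read-out was flow cytometry after FITC W6/32 staining.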

[3] = tested on: human dendritic cells cultured with human allogenic T cells; test: Effect on the ability of human dendritic cells to induce the growth of allogenic T cells ([3H]-thymidine incorporation); type: cell-based; conditions: dendritic cells treated 3 days with test compound and TNF-α, then 5 days with allogenic T cells, read-out: IC50 (inhibition of DNA synthesis of lymphocytes)
Method: Effect on the Ability of Human Dendritic Cells to Induce the Growth of Allogenic T Cells
Immature dendritic cells were cultured with a test compound and TNF-α for 3 days by the same method as that described in Test Example 2. The obtained dendritic cells (2.5×10^3 cells/50 μl/well) were cultured together with human allogenic T cells (2.0×10^5 cells/150 μl/well) in a 96-well flat bottom plate at 37° C. for 5 days in an incubator containing 5% carbon dioxide. Thereafter, [^3H]-thymidine (Amersham Pharmacia Biotech) was added thereto at an amount of 1 μCi/10 μl/well, 16 hours before completion of the culture. After completion of the culture, cells were captured on a glass filter using a cell harvester (Skatron Instrument) and then dried. Thereafter, Scintillator ACS-II (Amersham Pharmacia Biotech) was added thereto, and the radioactivity of [^3H]-thymidine incorporated into the cells were then measured using a liquid scintillation counter. The inhibition rate of the DNA synthesis of lymphocytes was calculated using the following formula (3). Thereafter, the concentration of a test compound necessary for inhibition of 50% (IC50 value) was obtained.
[formula] • Eexp: The amount of [^3H]-thymidine incorporated into cultured cells containing test compound • Cexp: The amount of [^3H]-thymidine incorporated into cultured cells containing no test compounds

mouse splenic cells = test: Inhibitory action on blastogenesis of mouse splenic cells ([3H]-thymidine incorporation); type: cell-based; conditions: 72 hours
Method: Inhibitory Action on Blastogenesis of Mouse Splenic Cells
The spleen was excised from each of BALB/c mice (Charles River Japan; female; 10-week-old), and it was allowed to pass through a mesh to obtain a single cell suspension. This single cell suspension was prepared to be 1.0×10^6 cells/ml. Thereafter, 200 μl of the suspension was fractionated into each well of a 96-well plate. Thereafter, as blastogenic stimulation, 5 μg/ml concanavalin A (Pharmacia) or 25 μg/ml Escherichia coli-derived lipopolysaccharide (DIFCO) was added to the well, and then, a solution containing a test compound with each different concentration was further added thereto at an amount of 20 μl/well. The obtained mixture was cultured at 37° C. for 72 hours in an incubator containing 5% carbon dioxide. Thereafter, a 1 μCi/10 μl/well [^3H]-thymidine solution was added thereto 64 hours after initiation of the culture. After completion of the culture (72 hours later), the cells were captured on a filter using a cell harvester, and they were then dried. Thereafter, scintillator was added thereto, and the radioactivity of [^3H]-thymidine incorporated into the cells was then measured using a liquid scintillation counter. The inhibition rate of the DNA synthesis was calculated using the aforementioned formula (3). Thereafter, the concentration of a test compound necessary for inhibition of 50% (IC50 value) was obtained.

[4] = tested on: MHC class I molecules of human peripheral blood-derived dendritic cells; test: Effect on expression of MHC class I molecules from human peripheral blood-derived dendritic cells; type: cell-based; conditions: dendritic cells matured with TNF-α, 3 days; read-out: EC50 (reduction of 50% of the number of cells wherein MHC class I molecules were highly expressed)
Text: Effect on Expression of MHC Class I Molecules from Human Peripheral Blood-Derived Dendritic Cells
Monocytes were isolated from human peripheral blood by the specific gravity centrifugation method. Thereafter, using mouse anti-human CD14 antibody-binding microbeads and a magnetic cell separation system (Miltenyi Biotec), CD14 positive cells were separated from the peripheral blood monocytes. The separated CD14 positive cells were suspended in an RPMI 1640 medium containing 10% FBS, and the suspension was then inoculated in a 6-well plate, resulting in a concentration of 1.0×10^6 cells/well. It was cultured at 37° C. for 20 minutes in an incubator containing 5% carbon dioxide. […] Thereafter, RPMI 1640 containing a 500 U/ml human recombinant […] (hereinafter referred to as GM-CSF; Anapure Bioscientific), 50 ng/ml human recombinant interleukin 4 (hereinafter referred to as IL-4; Pepro Tech), and 10% FBS, was added to the remaining suspension at a concentration of 2 ml/well. The obtained mixture was then cultured at 37° C. in an incubator containing 5% carbon dioxide. When adhesive CD14 positive cells are cultured in the presence of GM-CSF and IL-4, the CD14 positive cells were differentiated into non-adhesive immature dendritic cells. After the cells had been cultured for 7 days, non-adhesive cells were recovered to obtain immature dendritic cells. Using a 6-well plate, the immature dendritic cells (2.5×10^5 cells/well) were cultured in RPMI 1640 containing a 100 U/ml human recombinant tumor necrosis factor-α (hereinafter referred to as TNF-a; Pepro Tech), a test compound, and 10% FBS, at 37° C. for 3 days in an incubator containing 5% carbon dioxide. The dendritic cells became mature as a result of the presence of TNF-α, but in the present test, a test compound was allowed to simultaneously act on the cells. The mature dendritic cells were then stained with fluoroisothiocyanate-labeled mouse anti-human MHC class I monoclonal antibody (an antibody generated from the cell line W6/32 (ATCC No. CRL 1991)). The rate of the number of cells wherein MHC class I molecules were highly expressed to the total number of cells was measured by flow cytometry. The reduction rate of the number of cells wherein MHC class I molecules were highly expressed was calculated using the following formula (2), and the concentrations of test compounds necessary for reduction of 50% (EC50 values) were obtained.
[formula] • Eexp: (The number of cells, wherein MHC class I molecules are highly expressed, in cultured cells containing test compound)/(the total number of cells) • Cexp: (The number of cells, wherein MHC class I molecules are highly expressed, in cultured cells containing no test compounds)/(the total number of cells)

BALB/c mice = test: Effect on mouse delayed-type hypersensitivity reaction (DTH reaction), swelling of the sole; type: in vivo; conditions: Intraperitoneal, administration period 7 days, 100 mg/kg/single administration
Method: Effect on Mouse Delayed-Type Hypersensitivity Reaction (DTH Reaction)
1.0×10^5 sheep erythrocytes (Nippon Seibutsu Zairyo Center, Co., Ltd.) were administered to each of BALB/c mice (Charles River Japan, Inc.; female; 8-week-old) by intravenous injection for sensitization. From the day of administration of the sheep erythrocytes, a test compound was administered to the mouse. As a control, a 0.5% carboxymethyl cellulose (CMC)-Na solution and a normal saline solution used as solvents were administered to the same type of mouse via oral administration or intraperitoneal administration. Five days after the antigen sensitization, 1.0×10^8 sheep erythrocytes were subcutaneously injected into the sole of the mouse. 24 hours later, the thickness of the sole was measured. The value obtained by subtracting the mean value of the thicknesses of the soles of mice, to which a normal saline solution had been administered instead of the sheep erythrocytes, from the above measurement value, was defined as swelling of the sole generated as a result of the DTH reaction. The inhibition rate of the swelling of the sole caused by the DTH reaction was calculated using the following formula (5). The amount of the test compound necessary for inhibition of 50% (ED50 value) was obtained as the activity of the test compound to inhibit the DTH reaction. It is to be noted that cyclosporin A was used as a positive control.
[formula] • Eexp: Swelling of sole of mouse to which test compound was administered • Cexp: Swelling of sole of mouse to which solvent was administered

[5] = Mus musculus, Lymphocyte, 5 μg/ml concanavalin A, read-out: Lymphocyte blastogenesis IC50 (μM), ConA stimulation
[6] = Mus musculus, Lymphocyte, 25 μg/ml Escherichia coli-derived lipopolysaccharide, read-out: Lymphocyte blastogenesis IC50 (μM), LPS stimulation
[7] = 5 μg/ml concanavalin A, read-out: Lymphocyte blastogenesis IC50 (μM), ConA stimulation
[8] = 25 μg/ml Escherichia coli-derived lipopolysaccharide, read-out: Lymphocyte blastogenesis IC50 (μM), LPS stimulation
[9] = 100 mg/kg/single administration

| Structure (SMILES) | EC20 (concentration necessary for suppressing 20% of the expression level of MHC class I molecules) [2] [nM] | IC50 (mouse splenic cells; [7]) [µM] | IC50 (mouse splenic cells; [8]) [µM] | further results |
| --- | --- | --- | --- | --- |
| COc1ccc(-c2ccnc3nc(NC(=O)NC(C)CCCC(C)(C)O)nn23)cc1 (racemic) [Example 219] | 50 |  |  | Lengthening rate of survival days (%) ([1]; 25 mg/kg/single administration): 200% |
| COc1ccc(-c2ccnc3nc(NC(=O)NC(C)CCC(C)(C)O)nn23)cc1 (racemic) [Example 317, (±)-1-(4-hydroxy-1,4-dimethylpentyl)-3-[7-(4-methoxyphenyl)-[1,2,4]triazolo[1,5-a]pyrimidin-2-yl]urea] | 60 |  |  | Lengthening rate of survival days (%) ([1]; 30 mg/kg/single administration): 24% |
| COc1ccc(-c2ccnc3nc(NC(=O)NC(C(=O)OC(C)(C)C)C(C)C)nn23)cc1 (centres unmarked) [Example 045] | 30 |  |  | IC50 ([3]; Homo sapiens): 280 nM; IC50 (mouse splenic cells; [5]): 0.41 µM; IC50 (mouse splenic cells; [6]): 0.09 µM; EC50 [4]: 120 nM |
| COc1ccc(-c2ccnc3nc(NC(=O)N[C@@H](C)c4ccccc4)nn23)cc1 [Example 101] | 210 |  |  | IC50 ([3]; Homo sapiens): 625 nM; IC50 (mouse splenic cells; [5]): 0.58 µM; IC50 (mouse splenic cells; [6]): 0.18 µM; EC50 [4]: 220 nM |
| COc1ccc(-c2ccnc3nc(NC(=O)N[C@@H](C)c4cccc(OC)c4)nn23)cc1 [Example 132] | 39 | 0.08 | 0.06 | IC50 [3]: 625 nM; Lengthening rate of survival days (%) [1, 9]: 200% |
| COc1ccc(-c2ccnc3nc(NC(=O)N[C@H](C(=O)NCCN4CCCCC4)C(C)C)nn23)cc1.Cl [Example 135] | 810 |  |  | Inhibition rate (%) of swelling of the sole (BALB/c mice): 40.2% |
| COc1ccc(-c2ccnc3nc(NC(=O)N[C@@H](C)CCCC(C)C)nn23)cc1 [Example 160] | 14 | 0.07 | 0.04 | IC50 [3]: 156 nM |
| CC(C)NC(=O)Nc1nc2nccc(-c3cccc(OCCC4OCCCO4)c3)n2n1 [Example 183] | 220 | 0.55 | 0.14 |  |
| CC(C)NC(=O)Nc1nc2nccc(-c3cccc(OCC4CCCO4)c3)n2n1 (centres unmarked) [Example 184] | 210 | 0.63 | 0.29 |  |
| CCOCCC(C)NC(=O)Nc1nc2nccc(-c3ccc(OC)cc3)n2n1 (centres unmarked) [Example 274] | 110 |  |  | Lengthening rate of survival days (%) [1, 9]: 55% |
| COc1cccc([C@H](C)NC(=O)Nc2nc3nccc(-c4ccc5c(c4)OCO5)n3n2)c1 [Example 300, (S)-1-[1-(3-methoxyphenyl)ethyl]-3-[7-(3,4-methylenedioxyphenyl)-[1,2,4]triazolo[1,5-a]pyrimidin-2-yl]urea] | 19 |  |  | Lengthening rate of survival days (%) ([1]; 10 mg/kg/single administration): 100% |
| COc1ccc(-c2ccnc3nc(NC(=O)N[C@@H](C)CCCC(C)(C)O)nn23)cc1 [Example 319, (S)-1-(5-hydroxy-1,5-dimethylhexyl)-3-[7-(4-methoxyphenyl)-[1,2,4]triazolo[1,5-a]pyrimidin-2-yl]urea] | 20 |  |  | Lengthening rate of survival days (%) ([1]; 10 mg/kg/single administration): 200%; Lengthening rate of survival days (%) ([1]; 50 mg/kg/single administration): 200% |
